Measurements reported in patent US20180312473A1, “PHENAZINE DERIVATIVES AS ANTIMICROBIAL AGENTS” (priority 2015, published 2018).
Values after ≈ are worked out from the molar mass of the structure shown. Like-named read-outs stand apart in the source and are kept apart here. Marks after values point to notes of the source that are not given here.

How the values were obtained:
[1] = system: MRSA-2 planktonic cells and biofilms; test: Calgary Biofilm Device (CBD) assay, MBC/MBEC; type: cell-based, Staphylococcus aureus; conditions: for MBC: Staphylococcus aureus, MRSA
[2] = system: MRSE (S. epidermidis ATCC 35984) planktonic cells and biofilms; test: Calgary Biofilm Device (CBD) assay, MBC/MBEC; type: cell-based, Staphylococcus epidermidis; conditions: for MBC: Staphylococcus epidermidis
[3] = system: Staphylococcus epidermidis (ATCC 35984), MRSE; test: MIC assay (broth microdilution, CLSI); type: cell-based; conditions: for MIC: Staphylococcus epidermidis
[4] = system: MRSA-2 (methicillin-resistant Staphylococcus aureus clinical isolate); test: MIC assay (broth microdilution, CLSI); type: cell-based; conditions: Staphylococcus aureus, MRSA, read-out: MIC, MRSA-2
[5] = system: MRSA BAA-44; test: MIC assay (broth microdilution, CLSI); conditions: Staphylococcus aureus, read-out: MIC, MRSA BAA-44
[6] = system: human red blood cells; test: Hemolysis assay with red blood cells; conditions: human, 1 h, 200 μM, pH 7.2
Description: The hemolysis activities of select compounds of the invention were determined. […] The washing was repeated three times with the buffer. In 96-well plate, test compounds were added to the buffer from DMSO stocks. […] The plate was then incubated for 1 hour at 37° C. After incubation, the plate was centrifuged for 5 minutes at 3,500 rpm. Then 80 μL of the supernatant was transferred to another 96-well plate, and the optical density (OD) was read at 405 nm. DMSO served as the negative control (0% hemolysis), while Triton X served as the positive control (100% hemolysis). The percent of hemolysis was calculated as (OD405 of the compound−OD405 of DMSO)/(OD405 of Triton X−OD405 of the buffer).
The washing was repeated three times with the buffer. In 96-well plate, test compounds were added to the buffer from DMSO stocks. […] The plate was then incubated for 1 hour at 37° C. After incubation, the plate was centrifuged for 5 minutes at 3,500 rpm. Then 80 μL of the supernatant was transferred to another 96-well plate and the optical density (OD) was read at 405 nm. DMSO served as our negative control (0% hemolysis) while Triton X served as our positive control (100% hemolysis). The percent of hemolysis was calculated as (OD405 of the test compound−OD405 DMSO)/(OD405 Triton X−OD405 buffer) from three independent experiments.

[7] = system: Enterococcus faecium (ATCC 700221), VRE; test: MIC assay (broth microdilution, CLSI); type: cell-based
[8] = system: MRSA BAA-1707; test: MIC assay (broth microdilution, CLSI); conditions: Staphylococcus aureus, read-out: MIC, MRSA BAA-1707
[9] = system: Staphylococcus epidermidis (ATCC 12228); test: MIC assay (broth microdilution, CLSI); type: cell-based; conditions: Staphylococcus epidermidis, ATCC12228
[10] = system: S. epidermidis 12228; test: MIC assay with Tiron or metal(II) cation co-treatment; type: cell-based, Staphylococcus epidermidis; conditions: Staphylococcus epidermidis
[11] = in vitro; type: cell-based; conditions: human
Description: (§1) The cytotoxicities of select compounds of the invention against HeLa cells were determined. HeLa cytotoxicity was assessed using the LDH release assay described by CYTOTOX96 (Promega G1780). HeLa cells were grown in Dulbecco's Modified Eagle Medium (DMEM; Gibco) supplemented with 10% Fetal Bovine Serum (FBS) at 37° C. with 5% CO2. […] Triton X-100 (at 2% v/v) was used as the positive control for maximum lactate dehydrogenate (LDH) activity in this assay (e.g., complete cell death), while “medium only” lanes served as negative control lanes (e.g., no cell death). DMSO was used as the vehicle control. […] Finally, Stop Solution (50 μL) was added to the incubating plates, and the absorbance was measured at 490 nm.
(§2) HeLa cytotoxicity was assessed using the LDH release assay described by CYTOTOX96 (Promega G1780). HeLa cells were grown in Dulbecco's Modified Eagle Medium (DMEM; Gibco) supplemented with 10% Fetal Bovine Serum (FBS) at 37° C. with 5% CO2. […] Triton X-100 (at 2% v/v) was used as the positive control for maximum lactate dehydrogenate (LDH) activity in this assay (e.g., complete cell death), while “medium only” lanes served as negative control lanes (e.g., no cell death). DMSO was used as our vehicle control. […] Finally, Stop Solution (50 μL) was added to the incubating plates and the absorbance was measured at 490 nm. Results are from three independent experiments (FIG. 19)

[12] = system: HeLa cells; test: in vitro; type: cell-based; conditions: human, 24 h
Description: as §1, §2

[13] = system: MRSA-1 (methicillin-resistant Staphylococcus aureus clinical isolate); test: MIC assay (broth microdilution, CLSI); type: cell-based; conditions: Staphylococcus aureus, MRSA, Table 2A; read-out: MIC, MRSA-1
[14] = system: MRSA-2; test: MIC assay with Tiron or metal(II) cation co-treatment; type: cell-based, Staphylococcus aureus; conditions: Staphylococcus aureus
[15] = system: E. faecium 700221 (VRE); test: as above; type: cell-based, Enterococcus faecium; conditions: Enterococcus faecium, VRE
[16] = Table 8, a/b 2-/4-fold range in independent experiments, read-out: MRSA-2 MBC
[17] = Table 8, read-out: MRSE 35984 MBC
[18] = Table 2A, read-out: MIC, Staphylococcus epidermidis (ATCC 35984)
[19] = Table 7, read-out: MIC, MRSE 35984
[20] = Table 7, a midpoint of 2-fold range, b lowest concentration tested
[21] = Enterococcus faecium, Table 2A, read-out: MIC, Enterococcus faecium (ATCC 700221)
[22] = Table 7, b lowest concentration tested, read-out: MIC, VRE 700221
[23] = Table 2A, read-out: MIC, Staphylococcus epidermidis (ATCC 12228)
[24] = Table 7, b lowest concentration tested, read-out: MIC, S. epidermidis 12228

With `Oc1c(I)cc(Cl)c2nc3ccccc3nc12` [Compound 9, 4-Chloro-2-iodo-1-hydroxyphenazine] the MBC ([1]; Table 4, read-out: MBC, MRSA-2) was 93.8 µM (≈ 33.4 µg/mL), the MBC [1, 16] was 93.8 µM (≈ 33.4 µg/mL) and the “MBEC:MBC ratio, MRSA-2” value ([1]; Table 4) was 2.7. The MBC [2, 17] was 125 µM (≈ 44.6 µg/mL), the MIC [3, 18] was 25 µM (≈ 8.91 µg/mL) and the MIC [3, 19] was 25 µM (≈ 8.91 µg/mL). The MIC ([4]; Table 2A) was 25 µM (≈ 8.91 µg/mL), the MIC [4, 20] was 25 µM (≈ 8.91 µg/mL) and the melting point was 175 to 177 °C. The MIC [5] was 12.5 µM (≈ 4.46 µg/mL), the “% Hemolysis (200 μM)” value [6] was at most 1% and the “% Hemolysis at 200 μM” value [6] was at most 1%. For the same compound, the MIC [7, 21] was 6.25 µM (≈ 2.23 µg/mL), the MIC [7, 22] was 6.25 µM (≈ 2.23 µg/mL) and the MIC [8] was 3.13 µM (≈ 1.12 µg/mL). For the same compound, the MIC [9, 23] was 25 µM (≈ 8.91 µg/mL) and the MIC [9, 24] was 25 µM (≈ 8.91 µg/mL).
`Oc1c(I)cc(Br)c2nc3ccccc3nc12` [Compound 10, 4-Bromo-2-iodo-1-hydroxyphenazine] gave an MBC ([1]; Table 4, read-out: MBC, MRSA-2) of 46.9 µM (≈ 18.8 µg/mL), an MBC [1, 16] of 46.9 µM (≈ 18.8 µg/mL) and a melting point of 188 to 190 °C. For the same compound, the “% Hemolysis (200 μM)” value [6] was 1.3%, the “% Hemolysis at 200 μM” value [6] was 1.3% and the MIC [7, 21] was 6.25 µM (≈ 2.51 µg/mL). For the same compound, the MIC [7, 22] was 6.25 µM (≈ 2.51 µg/mL).
`Oc1c(Cl)cc(Br)c2nc3cc(Br)c(Br)cc3nc12` [Compound 15, 4,7,8-Tribromo-2-chloro-1-hydroxyphenazine] gave an MIC ([10]; S. epidermidis 12228, 200 μM CuSO4, read-out: MIC with Cu^2+) of 50 µM, an MIC ([10]; S. epidermidis 12228, 1 mM Tiron, read-out: MIC with Tiron) of 0.1 µM and an MIC ([10]; S. epidermidis 12228, no additive, read-out: MIC) of 0.1 µM. For the same compound, the MBC ([1]; Table 4, read-out: MBC, MRSA-2) was 25 µM (≈ 11.7 µg/mL), the MBC [1, 16] was 25 µM (≈ 11.7 µg/mL) and the MBC ([2]; Table 4, read-out: MBC, Staphylococcus epidermidis (ATCC 35984)) was 1.56 µM (≈ 0.729 µg/mL). The MBC [2, 17] was 1.56 µM (≈ 0.729 µg/mL), the “MBEC, Staphylococcus epidermidis (ATCC 35984)” value ([2]; Table 4) was 3.13 µM and the MIC [3, 18] was 0.2 to 0.39 µM (≈ 0.0935 to 0.182 µg/mL). For the same compound, the MIC [3, 19] was 0.3 to 0.59 µM (≈ 0.14 to 0.276 µg/mL), the “MIC, MRSE 35984” value ([3]; Table 7) was 0.30^a μM and the MIC ([4]; Table 2A) was 12.5 µM (≈ 5.84 µg/mL). It also gave an MIC [4, 20] of 12.5 µM (≈ 5.84 µg/mL), a melting point of 242 to 244 °C and an MIC [5] of 25 µM (≈ 11.7 µg/mL). For the same compound, the IC50 at 24 h [11] was over 100 µM, the IC50 [12] was over 100 µM and the “% Hemolysis (200 μM)” value [6] was 2.1%. For the same compound, the “% Hemolysis at 200 μM” value [6] was 2.1%, the MIC [7, 21] was 0.39 µM (≈ 0.182 µg/mL) and the MIC [7, 22] was 0.39 µM (≈ 0.182 µg/mL). For the same compound, the MIC [9, 23] was 0.05 to 0.1 µM (≈ 0.0234 to 0.0467 µg/mL), the MIC [9, 24] was 0.08 µM (≈ 0.0374 µg/mL) and the MIC [13] was 6.25 µM (≈ 2.92 µg/mL). For the same compound, the MIC ([14]; MRSA-2, 200 μM copper(II), read-out: MIC with Cu^2+) was over 100 µM, the MIC ([14]; MRSA-2, 1 mM Tiron, read-out: MIC with Tiron) was 0.2 µM and the MIC ([14]; MRSA-2, no additive (Table 9), read-out: MIC) was 3.13 µM. The MIC ([15]; E. faecium 700221, 200 μM CuSO4, read-out: MIC with Cu^2+) was 12.5 µM, the MIC ([15]; E. faecium 700221, 1 mM Tiron, read-out: MIC with Tiron) was 0.78 µM and the MIC ([15]; E. faecium 700221, no additive, read-out: MIC) was 0.78 µM.
In the case of `C=CCc1cc(Br)c2nc3cc(Br)c(Br)cc3nc2c1O` [Compound 24, 2-Allyl-4,7,8-tribromo-1-hydroxyphenazine], the MIC [4, 20] is reported as over 100 µM, the melting point is reported as 187 to 189 °C and the MIC [7, 22] is reported as over 100 µM. The MIC [9, 24] was over 100 µM.
